Reference: a melting point compilation (Tetko et al.; mined from patent text by program, amines drawn as free bases though some values may be those of a salt)

**Q.** With `CCC1Cc2cc(N)ccc2C1=O` (stereo not given) as the compound, how does the melting point read?
**A.** Its melting point is 106 to 108 °C.

**Q.** Which melting point does the source give for `N#Cc1ccc(C(=O)[C@H]2C[C@H]2C(=O)O)cc1` (relative stereo) here?
**A.** Its melting point is 180 to 182 °C.

**Q.** For `CC(C)OC(=O)c1cc(-c2ccccc2)c(=O)n2c1-c1sccc1CC2`, which melting point is on record?
**A.** The melting point was 166 °C.

**Q.** With `O=CNC(O)C(Cl)(Cl)CCl` (stereo not given) as the compound, how does the melting point read?
**A.** Its melting point is 105 to 109 °C.

**Q.** With `OC1(C2CCNCC2)CC(c2ccc(F)cc2)c2ccc(F)cc21` (stereo not given) as the compound, how does the melting point read?
**A.** Its melting point is 198 °C.

**Q.** Which melting point does the source give for `N#CCCNC(=O)c1nn(C2CCCCO2)cc1NC(=O)c1cc(Cl)ccn1` (stereo not given) here?
**A.** Its melting point is 218 to 219 °C.

**Q.** For `Cc1cn(C(C)C(=O)N(C)C)nc1-c1cccc(Cl)c1` (stereo not given), which melting point is on record?
**A.** The melting point was 73 to 75 °C.

**Q.** With `CC/C=C\CCC(C#N)(C#N)Cc1ccc(Cl)cc1` as the compound, how does the melting point read?
**A.** Its melting point is 44.8 °C.

**Q.** Which melting point does the source give for `CCOC(=O)/C=C/c1ccc(N2CCC(=O)CC2)cc1` here?
**A.** The melting point was 96 to 98 °C.

**Q.** For `Cc1nc2c(OCc3c(Cl)ccc(N(C)C(=O)CO)c3Cl)cccn2c1Br`, which melting point is on record?
**A.** The melting point was 217 to 218 °C.

**Q.** For `CN1C(=O)C(NC(=O)Nc2cccc(Br)c2)N(C)C1=O` (stereo not given), which melting point is on record?
**A.** The melting point was 173 to 182 °C.

**Q.** With `NC(=O)c1c(N)cccc1OCc1ccccc1` as the compound, how does the melting point read?
**A.** The melting point was 158 to 160 °C.

**Q.** For `COc1ccc(-c2ccoc2)c2c1c(CCN(C)C)cn2C`, which melting point is on record?
**A.** The melting point was 80 to 81 °C.

**Q.** For `COc1ccc2cc(C(N)=O)c(N)nc2c1OC`, which melting point is on record?
**A.** The melting point was 218 to 219 °C.

**Q.** Which melting point does the source give for `S=C(Oc1ccccc1)c1ccccc1` here?
**A.** Its melting point is 56 °C.

**Q.** With `C[Si](C)(CCSCCNC(=O)n1cc(F)c(=O)[nH]c1=O)c1ccccc1` as the compound, how does the melting point read?
**A.** The melting point was 90 to 91 °C.

**Q.** Which melting point does the source give for `CC(C)(C)NC(=O)c1ncccc1CCc1cccc(Cl)c1` here?
**A.** Its melting point is 45 to 46 °C.

**Q.** Which melting point does the source give for `CSc1nc2ccc(Br)cc2c2nn(-c3ccc(C)cc3)c(=O)n12` here?
**A.** The melting point was 213 °C.

**Q.** With `CCOc1cccc(C)c1S(=O)(=O)NC(=O)n1nc(OCC)n(C)c1=O` as the compound, how does the melting point read?
**A.** Its melting point is 160 °C.

**Q.** With `CCOC(=O)c1cc(NC(C)=O)ccc1O` as the compound, how does the melting point read?
**A.** The melting point was 135 to 136 °C.

**Q.** Which melting point does the source give for `O=Cc1cc(Cl)ccc1Oc1ccc(Cl)cc1[N+](=O)[O-]` here?
**A.** Its melting point is 128 to 130 °C.

**Q.** For `O=C(O)CCc1cc2cc(Cl)ccc2n1S(=O)(=O)c1ccc2[nH]ccc2c1`, which melting point is on record?
**A.** Its melting point is 79 °C.

**Q.** For `O=c1[nH]c2ccccc2c(=O)c2ccccc12`, which melting point is on record?
**A.** Its melting point is 245 to 248 °C.

**Q.** Which melting point does the source give for `CC(=O)Nc1ccc2c(c1)C(=O)N(CCCl)CO2` here?
**A.** The melting point was 133 to 135 °C.

**Q.** With `COc1ccc2c(c1)sc1nc(C(O)C3CC3)cn12` (stereo not given) as the compound, how does the melting point read?
**A.** The melting point was 151 to 153 °C.

**Q.** Which melting point does the source give for `COCCCOc1cc(C[C@@H](C(=O)O)C(C)C)ccc1OC` here?
**A.** Its melting point is 43.5 to 44 °C.

**Q.** Which melting point does the source give for `COC(=S)C(Cl)=C(C)Cl` here?
**A.** The melting point was 27 to 30 °C.

**Q.** Which melting point does the source give for `Cc1ccc(Oc2ccccc2C#N)c(O)c1` here?
**A.** The melting point was 118 to 119 °C.

**Q.** Which melting point does the source give for `O=C(Oc1c(Br)c(Br)c(Br)c(Br)c1Br)c1ccccc1CCl` here?
**A.** The melting point was 201 to 205 °C.

**Q.** For `CCCCCc1cc(O)c2c(c1)OC(C)(C)[C@H]1CC=C(C(=O)NCC(O)CNC(=O)c3ccc4c(c3)C(=O)OC43c4ccc(O)cc4Oc4cc(O)ccc43)C[C@H]21` (stereo not given in full), which melting point is on record?
**A.** Its melting point is over 330 °C.

**Q.** Which melting point does the source give for `Cc1cc([N+](=O)[O-])c2[nH]cc(CO)c(=O)c2c1` here?
**A.** Its melting point is over 240 °C.

**Q.** With `O=C(O)C=Cc1cccc(CCc2nc(-c3ccccc3)c(-c3ccccc3)o2)c1` as the compound, how does the melting point read?
**A.** The melting point was 114 to 115 °C.

**Q.** With `CCOC(=O)C(Cc1ccc(S)cc1)(NC(C)=O)C(=O)OCC` as the compound, how does the melting point read?
**A.** Its melting point is 125 to 128 °C.

**Q.** For `O=C(O)[C@@H]1CCCN1Cc1cc2cc3c(cc2c2cc(O)ccc12)OCO3`, which melting point is on record?
**A.** Its melting point is 205 to 206 °C.

**Q.** For `COc1cc(N2CCN([C@H](C)c3ccc(OC)c(OC)c3)CC2)ccc1Cl`, which melting point is on record?
**A.** The melting point was 172 to 176 °C.

**Q.** For `COc1ccc2[nH]c(-c3ccccc3N)cc2c1`, which melting point is on record?
**A.** Its melting point is 198 to 200 °C.

**Q.** Which melting point does the source give for `CCC(CC1(c2ccc(Cl)c(Cl)c2)CCC1)=NO` here?
**A.** Its melting point is 106 to 110 °C.

**Q.** Which melting point does the source give for `CNC(=O)Oc1ccc(N=Cc2ccccc2O)c2c1OC(C)(C)C2` here?
**A.** Its melting point is 201 to 203 °C.

**Q.** With `COc1ccccc1NC(=O)Nc1nc(Nc2ccccc2-c2ccccc2)nc(N(CCC(=O)O)CCc2c[nH]c3ccccc23)n1` as the compound, how does the melting point read?
**A.** The melting point was 115 to 120 °C.

**Q.** For `Cc1cccnc1OC(=O)Oc1ncccc1C`, which melting point is on record?
**A.** Its melting point is 110 to 112 °C.

**Q.** With `O=C(Nc1cccc(Cl)c1)Nc1cnnc(Cl)c1` as the compound, how does the melting point read?
**A.** Its melting point is 240 to 248 °C.

**Q.** For `CCCOC(C)c1cccc2[nH]c3cnc(C(=O)OCC)c(COC)c3c12` (stereo not given), which melting point is on record?
**A.** Its melting point is 127 to 130 °C.

**Q.** Which melting point does the source give for `COc1c(C)cc(C)c2c1C(=O)C1CCCCC21` (stereo not given) here?
**A.** Its melting point is 72 to 74 °C.

**Q.** Which melting point does the source give for `Nc1c(F)c(N2CCC(CC3(N)CC3)C2)c(F)c2c1c(=O)c(C(=O)O)cn2C1CC1F` (stereo not given) here?
**A.** The melting point was 185 to 193 °C.

**Q.** For `CCCCn1c(C)c(C)cc(N)c1=O`, which melting point is on record?
**A.** Its melting point is 94 to 97 °C.

**Q.** With `Cc1noc2ccc([N+](=O)[O-])cc12` as the compound, how does the melting point read?
**A.** Its melting point is 84.5 to 86.5 °C.

**Q.** Which melting point does the source give for `O=C(O)C1=Cc2cc(Cl)ccc2OC1C(F)(F)F` (stereo not given) here?
**A.** Its melting point is 181 to 184 °C.

**Q.** For `N#Cc1ccc(C2(CBr)OCCO2)cc1`, which melting point is on record?
**A.** The melting point was 92.4 °C.

**Q.** Which melting point does the source give for `CCCn1c(=O)c2[nH]cnc2n(-c2ccc(Cl)cc2)c1=O` here?
**A.** Its melting point is 233 to 234 °C.

**Q.** For `O=C(C1CCCC1)N1c2ccccc2CCC1CN1CCN(c2cccc3[nH]ccc23)CC1` (stereo not given), which melting point is on record?
**A.** Its melting point is 150 to 153 °C.

**Q.** For `Cc1ccc(CC(C(N)=O)c2ccccc2)cc1` (stereo not given), which melting point is on record?
**A.** Its melting point is 150 to 151 °C.

**Q.** With `O=C1Cc2cc3c(cc2C(c2cccc([N+](=O)[O-])c2)=NN1)OCO3` as the compound, how does the melting point read?
**A.** The melting point was 251 to 253 °C.

**Q.** Which melting point does the source give for `Cn1cc(-c2cccc(N3Cc4cc(C(C)(C)C)ccc4C3=O)c2CO)nc(Nc2ccc(N3CCOCC3)cc2)c1=O` here?
**A.** Its melting point is 225 to 227 °C.

**Q.** With `COC(=O)COc1ccc2ccc(C(C)=O)c(O)c2c1` as the compound, how does the melting point read?
**A.** Its melting point is 133 to 135 °C.

**Q.** With `CN1C(=O)C2(COc3cc4c(cc32)OCCO4)c2c(Oc3ccc(F)cc3)cccc21` (stereo not given) as the compound, how does the melting point read?
**A.** The melting point was 151 to 153 °C.

**Q.** For `CC(C)(C)OC(=O)N[C@H]1CC[C@H](ON2C(=O)c3ccccc3C2=O)CC1`, which melting point is on record?
**A.** Its melting point is 134 to 135 °C.

**Q.** Which melting point does the source give for `CCOC(=O)c1c2n(c3cc(Br)c(F)cc3c1=O)C(C)CS2` (stereo not given) here?
**A.** The melting point was 211 °C.

**Q.** With `Nc1cccc(Cn2c(-c3ccc(NC(=O)c4cccc(Br)c4)cc3)ccc2-c2ccccc2Cl)n1` as the compound, how does the melting point read?
**A.** Its melting point is 116 to 122 °C.

**Q.** With `CC(c1cc(Cl)ccc1O)c1cc(Br)ccc1O` (stereo not given) as the compound, how does the melting point read?
**A.** The melting point was 167 °C.

**Q.** For `NC(=O)COc1ccccc1C(=O)Nc1ccc(C(=O)N2CCCCc3ccccc32)cc1`, which melting point is on record?
**A.** The melting point was 198 to 199 °C.

**Q.** For `Nc1ccc(F)c(-c2cncnc2)c1F`, which melting point is on record?
**A.** Its melting point is 141 to 143 °C.

**Q.** For `Cc1cncc(CNC(=O)c2sc(N3CCN(CC(C)C)C3=O)nc2C)n1`, which melting point is on record?
**A.** The melting point was 139 to 142 °C.

**Q.** With `C[C@@H](C(N)=O)c1ccc(NS(C)(=O)=O)c(F)c1` as the compound, how does the melting point read?
**A.** Its melting point is 40 to 42 °C.

**Q.** With `Cc1cc(NC(=O)N(C)C)cc(C)c1S(=O)(=O)C[N+](=O)[O-]` as the compound, how does the melting point read?
**A.** Its melting point is 205 to 206 °C.

**Q.** With `Cc1ccc(Nc2nc(-c3ccccn3)cs2)nc1` as the compound, how does the melting point read?
**A.** Its melting point is 184 to 190 °C.

**Q.** Which melting point does the source give for `Cc1cn(C)c2c1N(C(=O)CN(C)C)c1ccccc1NC2=O` here?
**A.** The melting point was 219 to 220 °C.

**Q.** Which melting point does the source give for `N#CCc1ccc(N)c2[nH]ncc12` here?
**A.** The melting point was 164 to 165 °C.

**Q.** With `CN(c1ccc2c(c1)S(=O)(=O)C=C(c1c(O)c3cc(F)ccc3n(CCC3CC3)c1=O)N2)S(C)(=O)=O` as the compound, how does the melting point read?
**A.** The melting point was 208 to 212 °C.

**Q.** With `O=C(NC(Cc1c[nH]c2ccccc12)C(=O)O)c1ccccc1Cl` (racemic) as the compound, how does the melting point read?
**A.** Its melting point is 56 to 70 °C.

**Q.** Which melting point does the source give for `N#Cc1cccc(C=Cc2cccc(F)c2)n1` here?
**A.** The melting point was 111 to 112 °C.

**Q.** Which melting point does the source give for `COc1ccc(CNc2nc(SC)nc(OC)c2C(=O)O)cc1Cl` here?
**A.** The melting point was 167 to 170 °C.

**Q.** For `Cc1cccc(NC(=O)NCC(=O)N(CC(=O)OC(C)(C)C)c2ccc([N+](=O)[O-])cc2)c1`, which melting point is on record?
**A.** The melting point was 152 °C.

**Q.** Which melting point does the source give for `COc1cc(Nc2c(C#N)cnc3cc(C)sc23)c(Cl)cc1Cl` here?
**A.** Its melting point is 213 to 214 °C.

**Q.** With `COc1ccc2c(c1)CC(=O)NC2c1ccc(Cl)cc1` (stereo not given) as the compound, how does the melting point read?
**A.** The melting point was 200 to 201 °C.

**Q.** For `Cc1cc(SCc2ccc(-c3ccc(C(F)(F)F)cn3)cc2)c2c(c1OCC(=O)O)CCO2`, which melting point is on record?
**A.** The melting point was 94 to 95 °C.
